According to ChEMBL document CHEMBL1134342, “Current and novel approaches to the drug treatment of schizophrenia” (J Med Chem, 2001):
Active and inactive are the calls of the source. The rule behind the calls is not given here.

Columns and labels:
[1] = Plasma half life period was determined in human; assay type: ADME, organism-based
[2] = Half life period was determined in rat; assay type: ADME, organism-based; conditions: in vivo
[3] = Bioavailability in rat; assay type: ADME, organism-based; conditions: in vivo
[4] = molecular target: Voltage-gated L-type calcium channel (Homo sapiens, UniProt O60840+Q01668+Q13698+Q13936); assay: Percent inhibition of binding to calcium channel at 10 uM; assay type: protein assay
[5] = Percent inhibition of binding affinity for sodium channel at 10 uM
D(4) dopamine receptor = molecular target: T1, D(4) dopamine receptor (Homo sapiens, UniProt P21917)
T1 sequence (P21917 whole entry): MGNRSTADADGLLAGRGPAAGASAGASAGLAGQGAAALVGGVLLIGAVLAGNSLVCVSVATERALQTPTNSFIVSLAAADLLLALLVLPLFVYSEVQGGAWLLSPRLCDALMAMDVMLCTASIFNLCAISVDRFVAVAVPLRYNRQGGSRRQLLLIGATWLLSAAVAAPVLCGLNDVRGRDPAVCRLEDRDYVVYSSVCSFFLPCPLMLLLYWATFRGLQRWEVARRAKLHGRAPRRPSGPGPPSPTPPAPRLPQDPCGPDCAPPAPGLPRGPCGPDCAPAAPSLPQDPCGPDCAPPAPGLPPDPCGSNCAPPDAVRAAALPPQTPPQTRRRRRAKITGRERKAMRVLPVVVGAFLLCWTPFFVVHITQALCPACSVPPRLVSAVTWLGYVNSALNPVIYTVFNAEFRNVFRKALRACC

Rodentia sp. [6] = assay: Extrapyramidal liability by induction of catalepsy after oral administration of […] umol/kg; not effective; assay type: functional, organism-based
Rodentia sp. [7] = assay: Motor impairment by impaired spontaneous locomotor activity after oral administration of […] umol/kg; not effective; assay type: functional, organism-based
Rodentia sp. [8] = assay: EPS liability measured by blockade of stereotypy after oral administration of […] umol/kg; not effective; assay type: functional, organism-based
Rodentia sp. [9] = assay: Antipsychotic potential by blockade of apomorphine disruption in PPI after (sc) administration; assay type: functional; conditions: read-out: MED
Rodentia sp. [10] = assay: Antipsychotic potential by blockade of apomorphine or amphetamine hyperactivity after oral administration; assay type: functional
[11] = molecular target: 5-hydroxytryptamine receptor 2A (Homo sapiens, UniProt P28223)
Description: Binding affinity for human 5-hydroxytryptamine 2A receptor

Rodentia sp. [12] = assay: Extrapyramidal liability by induction of catalepsy after a (sc) administration 80 umol/kg; not effective; assay type: functional, organism-based
Rodentia sp. [13] = assay: Antipsychotic potential by inhibition of conditioned avoidance responding after a (sc) administration 40 umol/kg; not effective; assay type: functional, organism-based
Rodentia sp. [14] = assay: Induction of catalepsy was determined after a (sc) administration; assay type: functional
Rodentia sp. [15] = assay: Motor impairment by impaired rotarod performance after a (sc) administration; assay type: functional
Rodentia sp. [16] = assay: Motor impairment by impaired spontaneous locomotor activity after a (sc) administration; assay type: functional
Rodentia sp. [17] = assay: Antipsychotic potential by blockade of apomorphine or amphetamine hyperactivity after a (sc) administration; assay type: functional
[18] = Oral bioavailability was determined in rats and rhesus monkey; assay type: ADME, organism-based; conditions: eutheria, in vivo
[19] = Brain/Plasma AUC ratio was determined after oral administration of 50 mg/kg; assay type: ADME, organism-based; parameters: dose 50 mg/kg, route oral; conditions: brain and plasma
Mus musculus [20] = assay: Antagonizing amphetamine induced hyperlocomotion in mice was determined after (ip) administration; assay type: functional
Mus musculus [21] = assay: Antagonizing amphetamine induced hyperlocomotion in mice was determined after […] administration; assay type: functional
[22] = molecular target: T2, 5-hydroxytryptamine receptor 1A (Homo sapiens, UniProt P08908); assay: Binding affinity towards human 5-hydroxytryptamine 1 receptor
T2 sequence (P08908 whole entry): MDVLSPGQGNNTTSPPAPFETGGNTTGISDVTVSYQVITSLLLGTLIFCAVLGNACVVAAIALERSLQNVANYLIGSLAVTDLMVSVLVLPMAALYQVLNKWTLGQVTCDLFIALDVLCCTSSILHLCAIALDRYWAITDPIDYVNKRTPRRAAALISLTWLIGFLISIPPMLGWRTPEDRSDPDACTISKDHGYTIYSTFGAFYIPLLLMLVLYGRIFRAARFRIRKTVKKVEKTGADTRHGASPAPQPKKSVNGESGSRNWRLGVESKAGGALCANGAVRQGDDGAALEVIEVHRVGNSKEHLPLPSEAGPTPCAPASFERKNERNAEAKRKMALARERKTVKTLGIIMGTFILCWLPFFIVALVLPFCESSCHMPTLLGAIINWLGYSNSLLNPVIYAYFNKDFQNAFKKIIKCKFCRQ

[23] = molecular target: T3, Muscarinic acetylcholine receptor M1 (Homo sapiens, UniProt P11229)
T3 sequence (P11229 whole entry): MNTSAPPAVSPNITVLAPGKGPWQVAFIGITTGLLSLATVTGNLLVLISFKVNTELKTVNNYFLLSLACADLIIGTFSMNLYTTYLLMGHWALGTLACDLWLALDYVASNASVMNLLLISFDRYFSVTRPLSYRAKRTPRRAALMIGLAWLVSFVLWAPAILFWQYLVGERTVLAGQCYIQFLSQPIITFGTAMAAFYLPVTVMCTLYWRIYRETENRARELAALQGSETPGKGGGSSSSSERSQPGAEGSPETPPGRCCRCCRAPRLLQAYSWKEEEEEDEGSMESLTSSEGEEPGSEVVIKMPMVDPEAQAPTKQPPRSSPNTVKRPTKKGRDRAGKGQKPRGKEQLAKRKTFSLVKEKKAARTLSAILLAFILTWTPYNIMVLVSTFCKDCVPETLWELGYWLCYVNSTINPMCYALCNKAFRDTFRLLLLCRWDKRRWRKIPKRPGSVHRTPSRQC
Description: Binding affinity towards human M1 receptor.

[24] = molecular target: T4, Adrenergic receptor alpha-1 (Homo sapiens, UniProt P35348+P25100+P35368)
T4 sequence (P35348 whole entry): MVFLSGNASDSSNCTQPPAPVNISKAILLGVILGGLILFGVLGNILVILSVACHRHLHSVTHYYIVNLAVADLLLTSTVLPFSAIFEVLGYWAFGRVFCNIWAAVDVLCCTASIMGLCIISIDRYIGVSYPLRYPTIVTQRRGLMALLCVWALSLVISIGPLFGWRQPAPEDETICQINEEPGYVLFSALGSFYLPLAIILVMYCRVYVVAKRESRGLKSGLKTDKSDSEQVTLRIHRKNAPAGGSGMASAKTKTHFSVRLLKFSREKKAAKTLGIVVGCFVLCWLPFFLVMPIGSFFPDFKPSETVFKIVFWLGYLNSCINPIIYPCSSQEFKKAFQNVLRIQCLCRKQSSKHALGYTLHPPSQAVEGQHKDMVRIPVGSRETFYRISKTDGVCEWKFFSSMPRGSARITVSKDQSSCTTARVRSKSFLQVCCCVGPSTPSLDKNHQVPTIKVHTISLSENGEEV
T4 sequence (P25100 whole entry): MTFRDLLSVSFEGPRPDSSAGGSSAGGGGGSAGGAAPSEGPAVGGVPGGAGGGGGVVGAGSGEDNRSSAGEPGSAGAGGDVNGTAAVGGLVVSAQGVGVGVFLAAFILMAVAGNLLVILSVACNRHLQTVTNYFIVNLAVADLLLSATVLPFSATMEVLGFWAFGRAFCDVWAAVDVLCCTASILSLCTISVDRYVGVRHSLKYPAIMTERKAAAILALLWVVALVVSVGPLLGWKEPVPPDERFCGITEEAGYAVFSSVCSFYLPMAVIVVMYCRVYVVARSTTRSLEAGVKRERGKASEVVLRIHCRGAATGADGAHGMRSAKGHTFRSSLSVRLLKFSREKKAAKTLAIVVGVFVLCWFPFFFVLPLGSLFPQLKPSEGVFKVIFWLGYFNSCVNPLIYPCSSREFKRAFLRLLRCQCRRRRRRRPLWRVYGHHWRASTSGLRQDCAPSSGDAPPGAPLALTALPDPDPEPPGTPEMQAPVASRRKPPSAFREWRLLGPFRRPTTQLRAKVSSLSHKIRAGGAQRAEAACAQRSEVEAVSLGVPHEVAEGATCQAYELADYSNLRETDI
T4 sequence (P35368 whole entry): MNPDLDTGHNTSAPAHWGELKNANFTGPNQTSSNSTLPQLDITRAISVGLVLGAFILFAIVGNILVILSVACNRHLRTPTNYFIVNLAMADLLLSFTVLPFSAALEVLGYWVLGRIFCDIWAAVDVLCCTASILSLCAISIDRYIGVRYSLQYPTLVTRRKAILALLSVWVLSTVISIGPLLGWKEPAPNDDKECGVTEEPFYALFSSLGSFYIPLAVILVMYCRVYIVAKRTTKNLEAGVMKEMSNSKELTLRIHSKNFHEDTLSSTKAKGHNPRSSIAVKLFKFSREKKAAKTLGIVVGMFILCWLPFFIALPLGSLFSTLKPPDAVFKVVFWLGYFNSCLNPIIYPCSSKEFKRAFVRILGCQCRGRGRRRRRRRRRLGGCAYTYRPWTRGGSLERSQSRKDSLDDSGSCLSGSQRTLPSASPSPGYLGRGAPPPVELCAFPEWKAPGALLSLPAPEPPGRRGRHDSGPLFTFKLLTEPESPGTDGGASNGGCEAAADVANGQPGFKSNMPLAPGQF
Description: Binding affinity towards human alpha-1 adrenergic receptor

Rattus norvegicus [25] = assay: Block of mescaline induced head twitch in rat at 1 hour after peroral administration of compound; assay type: functional; conditions: po
Rattus norvegicus [26] = assay: Block of mescaline induced head twitch in rat at 6 hour after peroral administration of compound; assay type: functional; conditions: po
Rodentia sp. [27] = test system: Rodentia sp.
Rodentia sp. [28] = test system: Rodentia sp.; remark: listed apart in the source
Rodentia sp. [29] = test system: Rodentia sp.; remark: listed apart in the source
Rodentia sp. [30] = test system: Rodentia sp.; remark: listed apart in the source
Rodentia sp. [31] = test system: Rodentia sp.; remark: listed apart in the source
[32] = Cmax was determined in rat after oral administration of 3 mg/kg; assay type: ADME, organism-based; parameters: dose 3 mg/kg, route oral; conditions: in vivo
[33] = Binding affinity at sodium channels

Chain of 5-hydroxytryptamine receptor 2A (P28223 whole entry): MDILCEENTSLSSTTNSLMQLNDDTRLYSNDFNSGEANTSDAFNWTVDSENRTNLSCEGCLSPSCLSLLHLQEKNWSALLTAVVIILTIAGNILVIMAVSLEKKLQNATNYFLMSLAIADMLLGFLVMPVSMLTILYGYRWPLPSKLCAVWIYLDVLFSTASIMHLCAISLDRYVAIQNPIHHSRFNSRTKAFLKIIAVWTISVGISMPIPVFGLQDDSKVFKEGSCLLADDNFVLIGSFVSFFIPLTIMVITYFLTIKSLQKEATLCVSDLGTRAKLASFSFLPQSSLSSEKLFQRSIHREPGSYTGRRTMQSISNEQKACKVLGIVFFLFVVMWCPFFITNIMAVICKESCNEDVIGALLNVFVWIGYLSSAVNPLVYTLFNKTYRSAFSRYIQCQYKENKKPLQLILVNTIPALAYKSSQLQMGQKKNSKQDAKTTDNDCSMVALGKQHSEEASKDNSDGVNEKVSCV

COc1cccc([C@H](O)C2CCN(CCc3ccc(F)cc3)CC2)c1OC [VOLINANSERIN]
half-life [1]: 6.6 h

Clc1ccccc1CCN1CCN(c2[nH]nc3c2CCc2ccccc2-3)CC1
half-life [2]: 1 h
bioavailability [3]: 31%
inhibition at 10 µM [4]: 58%
inhibition [5]: 33%
Ki (D(4) dopamine receptor): 4.3 nM

Fc1ccc(OC[C@@H]2CC[C@H]3CN(c4ncc(F)cn4)CCN3C2)cc1
NE (Rodentia sp. [6]): inactive
NE (Rodentia sp. [7]): inactive
NE (Rodentia sp. [8]): inactive
minimal effective dose (Rodentia sp. [9]): 18 mg/kg
ED50 (Rodentia sp. [10]): 13 mg/kg

Cc1c(-c2ccccc2)[nH]c(=O)n1C1CCN(Cc2cccc(C#N)c2)CC1
half-life [2]: 1.1 h
bioavailability [3]: 69%

O=C(c1ccccc1)C1CCN(CCc2ccccc2)CC1
Ki [11]: 9.6 nM

c1ccc2c(c1)CC(CN1CCN(c3ccc4c(c3)OCCO4)CC1)C2
NE (Rodentia sp. [12]): inactive
NE (Rodentia sp. [13]): inactive
ED50 (Rodentia sp. [14]): 80 mg/kg
ED50 (Rodentia sp. [15]): 66 mg/kg
ED50 (Rodentia sp. [16]): 40 mg/kg
ED50 (Rodentia sp. [17]): 9 mg/kg

O=C(c1ccc(F)cc1)C1CCN(CCCCc2ccccc2)CC1
Ki [11]: 5.3 nM

COc1cccc([C@H](O)C2CCN(CCc3ccc(F)cc3)CC2)c1O
bioavailability [18]: < 3%
Kp [19]: < 0.13
ED50 (Mus musculus [20]): 0.08 mg/kg
ED50 (Mus musculus [21]): 0.62 mg/kg

O=C1Cc2cc(CCN3CCN(c4nsc5ccccc45)CC3)c(Cl)cc2N1 [ZIPRASIDONE]
Ki [22]: 37 nM
Ki [23]: > 10000 nM
Ki [24]: 1.9 nM

O=S1(=O)c2cccc3cccc(c23)N1CCCN1CCN(c2ccc(F)cc2)CC1 [FANANSERIN]
ED50 (Rattus norvegicus [25]): 0.99 mg/kg
ED50 (Rattus norvegicus [26]): 2.4 mg/kg
Ki (D(4) dopamine receptor): 2.9 nM

O=c1ccc2ccc(NCCNc3ccccc3)cc2o1
Ki (D(4) dopamine receptor): 5.8 nM

NS(=O)(=O)c1ccc(N2CCN(CC[C@@H]3OCCc4ccccc43)CC2)cc1 [SONEPIPRAZOLE]
minimal effective dose (Rodentia sp. [9]): 30 mg/kg
Ki (D(4) dopamine receptor): 6.8 nM
NE (Rodentia sp. [27]): inactive
NE (Rodentia sp. [28]): inactive
NE (Rodentia sp. [29]): inactive
NE (Rodentia sp. [30]): inactive
NE (Rodentia sp. [31]): inactive

O=C(c1ccc(F)cc1)C1CCN(CCn2c(=O)[nH]c3ccccc3c2=O)CC1 [KETANSERIN]
Ki (D(4) dopamine receptor): 3.5 nM

OC(c1ccccc1)C1CCN(CCc2ccccc2)CC1 (configuration not stated) [GLEMANSERIN]
Ki [11]: 2.5 nM

c1ccc(N2CCN(Cc3c[nH]c4ncccc34)CC2)cc1
Cmax [32]: 18 ng/mL
Ki (D(4) dopamine receptor): 1.9 nM

Cc1c(C2CCN(CCc3ccccc3)CC2)noc1-c1ccc(Cl)cc1
half-life [2]: 2 h
bioavailability [3]: 38%

OC(c1ccc(F)cc1)C1CCN(CCCCc2ccccc2)CC1 (configuration not stated)
Ki [11]: 126 nM

c1ccc(N2CCN(Cc3c[nH]c4ccccc34)CC2)cc1
IC50 [33]: > 10000 nM
